Source: ChEMBL document CHEMBL1128462, “In vivo and in vitro studies on the neurotoxic potential of 6-hydroxydopamine analogs” (J Med Chem, 1995)

What was measured:
[1] = molecular target: Sodium-dependent dopamine transporter (Rattus norvegicus, UniProt P23977); test: Evaluated for the Competitive inhibition of uptake of dopamine transporter
[2] = organism: Mus musculus; test: Long term depletion of Dopamine(DA) in Whole mouse Brain at a high dose (300 nmol); type: functional
[3] = organism: Mus musculus; test: Long term depletion of Dopamine(DA) in Whole mouse Brain at a low dose (60 nmol); type: functional
[4] = organism: Mus musculus; test: Long term depletion of Norepinephrine (NE) in Whole mouse Brain at a high dose (300 nmol); type: functional
[5] = organism: Mus musculus; test: Long term depletion of Norepinephrine (NE) in Whole mouse Brain at a low dose (60 nmol); type: functional
[6] = organism: Mus musculus; test: Long term depletion of Serotonin(5-HT) in Whole mouse Brain at a high dose (300 nmol); type: functional
[7] = organism: Mus musculus; test: Long term depletion of Serotonin(5-HT) in Whole mouse Brain at a low dose (60 nmol); type: functional
[8] = molecular target: T1, Norepinephrine transporter (Rattus norvegicus, UniProt Q9WTR4); test: Evaluated for the Non competitive inhibition of uptake of norepinephrine
[9] = organism: Rattus norvegicus; test: Evaluated for the stimulation of synaptosomal release of Dopamine (release constant); type: functional
[10] = organism: Rattus norvegicus; test: Evaluated for the stimulation of synaptosomal release of norepinephrine (release constant); type: functional
[11] = molecular target: T1, Norepinephrine transporter; test: Evaluated for the Competitive inhibition of uptake of norepinephrine
[12] = organism: Mus musculus; test: Long term depletion of Dopamine(DA) in Whole mouse Brain region of cerebellum at a high dose (300 nmol); type: functional
[13] = organism: Mus musculus; test: Long term depletion of Dopamine(DA) in Whole mouse Brain region of cortex at a high dose (300 nmol); type: functional
[14] = organism: Mus musculus; test: Long term depletion of Dopamine(DA) in Whole mouse Brain region of hippocampus at a high dose (300 nmol); type: functional
[15] = organism: Mus musculus; test: Long term depletion of Dopamine(DA) in Whole mouse Brain region of hypothalamus at a high dose (300 nmol); type: functional
[16] = organism: Mus musculus; test: Long term depletion of Dopamine(DA) in Whole mouse Brain region of medulla-pons at a high dose (300 nmol); type: functional
[17] = organism: Mus musculus; test: Long term depletion of Serotonin(5-HT) in Whole mouse Brain region of medulla-pons at a high dose (300 nmol); type: functional
[18] = organism: Mus musculus; test: Long term depletion of Serotonin(5-HT) in Whole mouse Brain region of striatum at a high dose (300 nmol); type: functional
[19] = organism: Mus musculus; test: Long term depletion of Serotonin(5-HT) in Whole mouse Brain region of thalamus at a high dose (300 nmol); type: functional
[20] = organism: Mus musculus; test: Long term depletion of Serotonin(5-HT) in Whole mouse Brain, region of midbrain at a high dose (300 nmol); type: functional
[21] = organism: Mus musculus; test: Long term depletion of Dopamine(DA) in Whole mouse Brain region of striatum at a high dose (300 nmol); type: functional
[22] = organism: Mus musculus; test: Long term depletion of Dopamine(DA) in Whole mouse Brain region of thalamus at a high dose (300 nmol); type: functional
[23] = organism: Mus musculus; test: Long term depletion of Dopamine(DA) in Whole mouse Brain, region of midbrain at a high dose (300 nmol); type: functional
[24] = organism: Mus musculus; test: Noradrenergic effect was determined by depletion effect of Dopamine(DA) in mouse brain regions expressed as d50; type: functional
[25] = organism: Mus musculus; test: Noradrenergic effect was determined by depletion effect of Nerepinephrine (NE) in mouse brain regions expressed as d50; type: functional
[26] = organism: Mus musculus; test: Noradrenergic effect was determined by depletion effect of Serotonin(5-HT) in mouse brain regions expressed as d50; type: functional
[27] = organism: Mus musculus; test: Noradrenergic effect was determined by depletion effect of Dopamine(DA) in mouse brain regions expressed as log d50; type: functional, organism-based
[28] = organism: Mus musculus; test: Noradrenergic effect was determined by depletion effect of Nerepinephrine (NE) in mouse brain regions expressed as log d50; type: functional, organism-based
[29] = organism: Mus musculus; test: Noradrenergic effect was determined by depletion effect of Serotonin(5-HT) in mouse brain regions expressed as log d50; type: functional, organism-based
[30] = organism: Mus musculus; test: Long term depletion of Serotonin(5-HT) in Whole mouse Brain region of cerebellum at a high dose (300 nmol); type: functional
[31] = organism: Mus musculus; test: Long term depletion of Serotonin(5-HT) in Whole mouse Brain region of cortex at a high dose (300 nmol); type: functional
[32] = organism: Mus musculus; test: Long term depletion of Serotonin(5-HT) in Whole mouse Brain region of hippocampus at a high dose (300 nmol); type: functional
[33] = organism: Mus musculus; test: Long term depletion of Serotonin(5-HT) in Whole mouse Brain region of hypothalamus at a high dose (300 nmol); type: functional
[34] = organism: Mus musculus; test: Long term depletion of Norepinephrine (NE) in Whole mouse Brain region of cerebellum at a high dose (300 nmol); type: functional
[35] = organism: Mus musculus; test: Long term depletion of Norepinephrine (NE) in Whole mouse Brain, region of midbrain at a high dose (300 nmol); type: functional
[36] = organism: Mus musculus; test: Long term depletion of Norepinephrine (NE) in Whole mouse Brain region of hypothalamus at a high dose (300 nmol); type: functional
[37] = organism: Mus musculus; test: Long term depletion of Norepinephrine (NE) in Whole mouse Brain region of striatum at a high dose (300 nmol); type: functional
[38] = organism: Mus musculus; test: Long term depletion of Norepinephrine (NE) in Whole mouse Brain region of thalamus at a high dose (300 nmol); type: functional
[39] = organism: Mus musculus; test: Long term depletion of Norepinephrine (NE) in Whole mouse Brain region of cortex at a high dose (300 nmol); type: functional
[40] = organism: Mus musculus; test: Long term depletion of Norepinephrine (NE) in Whole mouse Brain region of hippocampus at a high dose (300 nmol); type: functional
[41] = organism: Mus musculus; test: Long term depletion of Norepinephrine (NE) in Whole mouse Brain region of medulla-pons at a high dose (300 nmol); type: functional
[42] = organism: Mus musculus; test: Long term depletion of Dopamine(DA) in Whole mouse Brain region of cerebellum at a high dose (300 nmol) with respect to control value(100+/-9); type: functional
[43] = organism: Mus musculus; test: Long term depletion of Serotonin(5-HT) in Whole mouse Brain region of medulla-pons at a high dose (300 nmol) with respect to control value(100+/-6); type: functional
[44] = organism: Mus musculus; test: Long term depletion of Dopamine(DA) in Whole mouse Brain region of medulla-pons at a high dose (300 nmol) with respect to control value(100+/-8); type: functional
[45] = organism: Mus musculus; test: Long term depletion of Norepinephrine (NE) in Whole mouse Brain, region of midbrain at a high dose (300 nmol) with respect to control value(100+/-8); type: functional
[46] = organism: Mus musculus; test: Long term depletion of Norepinephrine (NE) in Whole mouse Brain region of medulla-pons at a high dose (300 nmol) with respect to control value(100+/-9); type: functional
[47] = organism: Mus musculus; test: Long term depletion of Norepinephrine (NE) in Whole mouse Brain region of cortex at a high dose (300 nmol) with respect to control value(100+/-6); type: functional
[48] = organism: Mus musculus; test: Long term depletion of Norepinephrine (NE) in Whole mouse Brain region of hippocampus at a high dose (300 nmol) with respect to control value(100+/-10); type: functional
[49] = organism: Mus musculus; test: Long term depletion of Dopamine(DA) in Whole mouse Brain region of hypothalamus at a high dose (300 nmol) with respect to control value(100+/-14); type: functional

T1 sequence (Q9WTR4 whole entry): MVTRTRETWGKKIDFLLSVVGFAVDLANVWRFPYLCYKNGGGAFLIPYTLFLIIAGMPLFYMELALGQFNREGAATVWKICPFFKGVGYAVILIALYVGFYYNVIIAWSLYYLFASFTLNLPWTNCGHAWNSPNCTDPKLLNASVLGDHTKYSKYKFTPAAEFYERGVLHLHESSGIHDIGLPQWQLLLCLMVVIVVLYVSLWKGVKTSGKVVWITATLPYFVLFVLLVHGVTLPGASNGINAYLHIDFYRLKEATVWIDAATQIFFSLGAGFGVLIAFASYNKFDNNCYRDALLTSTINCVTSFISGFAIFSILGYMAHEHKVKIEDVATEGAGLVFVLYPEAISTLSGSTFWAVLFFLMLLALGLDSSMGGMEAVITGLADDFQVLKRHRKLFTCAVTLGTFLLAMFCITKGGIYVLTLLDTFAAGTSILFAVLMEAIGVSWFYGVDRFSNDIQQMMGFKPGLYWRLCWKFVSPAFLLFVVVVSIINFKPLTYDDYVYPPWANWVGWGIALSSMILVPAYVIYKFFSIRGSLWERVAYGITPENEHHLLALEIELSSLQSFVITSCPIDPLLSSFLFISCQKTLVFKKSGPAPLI
Sodium-dependent dopamine transporter, sequence (P23977 whole entry): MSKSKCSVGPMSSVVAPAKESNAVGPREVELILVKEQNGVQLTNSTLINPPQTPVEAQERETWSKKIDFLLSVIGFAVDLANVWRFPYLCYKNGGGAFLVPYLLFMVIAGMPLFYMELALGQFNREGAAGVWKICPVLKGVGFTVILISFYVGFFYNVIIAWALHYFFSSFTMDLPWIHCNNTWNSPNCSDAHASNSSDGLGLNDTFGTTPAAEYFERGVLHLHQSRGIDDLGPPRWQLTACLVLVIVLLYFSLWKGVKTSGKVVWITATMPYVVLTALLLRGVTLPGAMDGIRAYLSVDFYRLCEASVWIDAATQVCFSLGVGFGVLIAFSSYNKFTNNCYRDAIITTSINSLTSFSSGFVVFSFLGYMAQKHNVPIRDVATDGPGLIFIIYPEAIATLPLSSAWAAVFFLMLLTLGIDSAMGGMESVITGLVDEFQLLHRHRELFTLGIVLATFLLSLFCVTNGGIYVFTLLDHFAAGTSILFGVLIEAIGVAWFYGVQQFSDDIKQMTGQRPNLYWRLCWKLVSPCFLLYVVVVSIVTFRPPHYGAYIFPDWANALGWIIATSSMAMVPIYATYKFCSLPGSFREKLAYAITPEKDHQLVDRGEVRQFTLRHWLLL

CC(N)Cc1cc(O)c(N)cc1O (stereo unspecified)
Ki [1]: 3 nM
percent of control [2]: 88%
Control [3]: 100%
Control [4]: 40%
Control [5]: 33%
Control [6]: 83%
Control [7]: 79%
Ki [8]: 1 nM
EC50 [9]: 8000 nM
EC50 [10]: 51000 nM

NCCc1cc(N)c(O)cc1O
Ki [1]: 47 nM
percent of control [2]: 84%
Control [3]: 96%
Control [4]: 36%
Control [5]: 40%
Control [6]: 96%
Control [7]: 91%
Ki [11]: 13 nM
EC50 [9]: 105000 nM
EC50 [10]: 212000 nM

NCCc1cc(O)c(O)cc1N
Ki [1]: 17 nM
percent of control [2]: 79%
Control [3]: 90%
Control [4]: 37%
Control [5]: 40%
Control [6]: 74%
Control [7]: 78%
Ki [11]: 11 nM
EC50 [9]: 3000 nM
EC50 [10]: 23000 nM

NCCc1cc(O)c(N)cc1O
Ki [1]: 9 nM
percent of control [2]: 85%
Control [3]: 100%
Control [4]: 39%
Control [5]: 37%
Control [6]: 72%
Control [7]: 73%
Ki [11]: 5 nM
EC50 [9]: 21000 nM
EC50 [10]: 34000 nM

CC(N)Cc1cc(N)c(O)cc1O (stereo unspecified)
Ki [1]: 112 nM
percent of control [2]: 74%
Control [3]: 100%
Control [12]: 63%
Control [13]: 57%
Control [14]: 42%
Control [15]: 120%
Control [16]: 110%
Control [17]: 101%
Control [18]: 104%
Control [19]: 93%
Control [20]: 75%
Control [21]: 71%
Control [22]: 154%
Control [23]: 116%
Control [4]: 22%
d50 [24]: 918 nmol
d50 [25]: 21.5 nmol
d50 [26]: 3220 nmol
Log d50 [27]: 2.96 nM
Log d50 [28]: 1.33 nM
Log d50 [29]: 3.51 nM
Control [30]: 77%
Control [31]: 78%
Control [32]: 63%
Control [33]: 75%
Control [5]: 26%
Control [34]: 3.4%
Control [35]: 74%
Control [6]: 83%
Control [7]: 103%
Control [36]: 1.3%
Control [37]: 7%
Control [38]: 14%
Control [39]: 8%
Control [40]: 6.4%
Ki [11]: 46 nM
EC50 [9]: 380000 nM
EC50 [10]: 672000 nM
Control [41]: 59%

NCCc1cc(O)c(O)cc1O [OXIDOPAMINE]
Ki [1]: 12 nM
percent of control [2]: 71%
Control [3]: 86%
Control [42]: 72%
Control [13]: 53%
Control [14]: 25%
Control [43]: 109%
Control [18]: 103%
Control [19]: 90%
Control [20]: 89%
Control [44]: 158%
Control [21]: 76%
Control [22]: 151%
Control [23]: 88%
Control [4]: 35%
d50 [24]: 831 nmol
d50 [25]: 34.3 nmol
d50 [26]: 1930 nmol
Log d50 [27]: 2.92 nM
Log d50 [28]: 1.53 nM
Log d50 [29]: 3.28 nM
Control [30]: 79%
Control [31]: 82%
Control [32]: 71%
Control [33]: 89%
Control [5]: 40%
Control [34]: 3.8%
Control [45]: 70%
Control [6]: 88%
Control [36]: 6.9%
Control [46]: 47%
Control [37]: 23%
Control [38]: 18%
Control [47]: 9%
Control [48]: 5.3%
Ki [11]: 51 nM
EC50 [9]: 60000 nM
EC50 [10]: 828000 nM
Control [49]: 116%

CC(N)Cc1cc(O)c(O)cc1N (stereo unspecified)
Ki [1]: 9 nM
percent of control [2]: 77%
Control [3]: 96%
Control [4]: 26%
Control [5]: 32%
Control [6]: 59%
Control [7]: 72%
Ki [11]: 8 nM
EC50 [9]: 7000 nM
EC50 [10]: 21000 nM

CC(N)Cc1cc(O)c(O)cc1O (stereo unspecified)
Ki [1]: 16 nM
Control [3]: 87%
Control [5]: 25%
Control [7]: 93%
Ki [11]: 26 nM
EC50 [9]: 101000 nM
EC50 [10]: 317000 nM
